Measurements: the supplement of paper PMC10307832

What was measured:
Experiment in all cases: relative viability (nuclei count vs DMSO), 5 days (fraction); higher = more cells survive
[1] = compound: CC[C@H](Nc1ncnc2[nH]cnc12)c1nc2cccc(F)c2c(=O)n1-c1ccccc1 [Idelalisib] + NC(=O)Nc1cc(-c2cccc(F)c2)sc1C(=O)N[C@H]1CCCNC1 [AZD7762] (partner 0.2 µM)
Method in brief: (§1)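 Lung cancer cell lines were pin-tool dosed in 1536-well plates on the day after seeding, with either a lone drug or a fixed anchor-drug dose plus five library-drug doses (not always all listed) in √10 steps. Nuclei were counted on 4× images after 5 days. Relative viability is the ratio of treated-well to vehicle-well nuclei counts, with each value a median of duplicate plates.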

[2] = compound: CC[C@H](Nc1ncnc2[nH]cnc12)c1nc2cccc(F)c2c(=O)n1-c1ccccc1 [Idelalisib] + CC(=O)c1c(C)c2cnc(Nc3ccc(N4CCNCC4)cn3)nc2n(C2CCCC2)c1=O [Palbociclib] (partner 0.5 µM)
Method in brief: as §1

[3] = compound: Nc1nc2[nH]cc(CCc3ccc(C(=O)N[C@@H](CCC(=O)O)C(=O)O)cc3)c2c(=O)[nH]1 [Pemetrexed] + CC1(C)CCC(c2ccc(Cl)cc2)=C(CN2CCN(c3ccc(C(=O)NS(=O)(=O)c4ccc(N[C@H](CCN5CCOCC5)CSc5ccccc5)c(S(=O)(=O)C(F)(F)F)c4)cc3)CC2)C1 [Navitoclax] (partner 0.5 µM)
Method in brief: as §1

[4] = compound: CC[C@H](Nc1ncnc2[nH]cnc12)c1nc2cccc(F)c2c(=O)n1-c1ccccc1 [Idelalisib] + CC(=O)Nc1cccc(-n2c(=O)n(C3CC3)c(=O)c3c(Nc4ccc(I)cc4F)n(C)c(=O)c(C)c32)c1 [Trametinib] (partner 0.02 µM)
Method in brief: as §1

Cell Line	relative viability ([1]; first compound 0.04 µM)	relative viability ([1]; first compound 0.1265 µM)	relative viability ([1]; first compound 1.265 µM)	relative viability ([1]; first compound 4 µM)	relative viability ([2]; first compound 0.04 µM)	relative viability ([2]; first compound 0.1265 µM)	relative viability ([2]; first compound 1.265 µM)	relative viability ([2]; first compound 4 µM)	relative viability ([3]; first compound 0.006325 µM)	relative viability ([3]; first compound 0.02 µM)	relative viability ([3]; first compound 0.06325 µM)	relative viability ([3]; first compound 0.2 µM)	relative viability ([4]; first compound 0.04 µM)	relative viability ([4]; first compound 0.1265 µM)	relative viability ([4]; first compound 1.265 µM)	relative viability ([4]; first compound 4 µM)	relative viability ([2]; first compound 0.4 µM)	relative viability ([3]; first compound 0.002 µM)	relative viability ([4]; first compound 0.4 µM)	relative viability ([1]; first compound 0.4 µM)
NCI-H441	1.31	1.08	0.715	1.32	0.231	0.155	0.23	0.182	0.457	0.605	0.6	0.48	0.437	0.484	0.615	0.396	–	–	–	–
NCI-H520	–	–	–	–	0.24	0.184	0.185	0.156	1.08	1.25	1.11	1.08	0.793	0.566	0.628	0.613	0.193	0.963	0.479	–
CAL-12T	0.843	0.653	0.398	0.654	0.836	0.525	0.615	0.414	1.05	1.14	1.3	1.22	0.422	0.28	0.363	0.339	0.448	1.17	0.276	0.713
HCC-827	0.216	0.212	0.153	0.199	0.507	0.471	0.349	0.378	0.964	1.13	1.02	0.908	0.578	0.517	0.476	0.424	0.426	0.926	0.473	0.31
LC-2-ad	0.826	0.86	0.782	0.632	0.454	0.518	0.503	0.49	0.437	0.363	0.159	0.162	0.963	0.957	1.02	0.806	0.513	0.304	0.931	0.734
NCI-H2170	0.859	0.873	0.542	0.737	0.398	0.434	0.347	0.336	0.587	0.663	0.662	0.5	1.05	0.941	0.893	0.805	0.384	0.538	0.851	0.819
SW 1573	–	–	–	–	0.436	0.376	0.372	0.255	0.927	0.987	0.889	0.902	0.688	0.468	0.506	0.383	0.346	1.11	0.477	–
SK-MES-1	–	–	–	–	0.296	0.311	0.315	0.288	1.1	1.27	1.26	1.2	0.497	0.482	0.477	0.353	0.299	1.24	0.426	–
NCI-H1648	0.652	0.638	0.6	0.504	0.239	0.291	0.262	0.315	–	–	–	–	0.418	0.482	0.433	0.397	0.298	–	0.423	0.866
NCI-H1793	0.758	0.449	0.14	0.326	0.331	0.27	0.298	0.26	0.41	0.55	0.421	0.416	0.431	0.467	0.475	0.383	–	0.616	–	–
NCI-H1299	–	–	–	–	–	–	–	–	0.981	1.1	1.04	1	–	–	–	–	–	1.05	–	–
LCLC-97TM1	0.199	0.382	0.107	0.339	0.247	0.248	0.239	0.158	0.279	0.674	0.375	0.394	0.194	0.21	0.228	0.163	0.179	0.393	0.216	0.274
NCI-H1915	0.766	0.687	0.552	0.68	0.603	0.482	0.577	0.495	0.757	0.772	0.764	0.783	0.281	0.291	0.317	0.265	0.5	0.773	0.291	0.643
NCI-H661	–	–	–	–	0.417	0.425	0.459	0.421	–	–	–	–	0.585	0.579	0.618	0.502	0.398	–	0.535	–
NCI-H2405	0.821	0.779	0.601	0.705	0.539	0.484	0.512	0.486	0.882	0.907	0.778	0.776	0.672	0.656	0.622	0.515	0.494	1.13	0.423	0.534
NCI-H2347	0.699	0.925	0.466	0.478	0.48	0.453	0.42	0.286	0.805	0.776	0.619	0.391	0.267	0.282	0.278	0.229	0.445	0.659	0.246	0.69
NCI-H1651	0.522	0.456	0.245	0.519	0.518	0.524	0.522	0.442	0.977	1.01	0.938	0.968	0.825	0.85	0.844	0.814	0.489	0.906	0.815	0.46
H3255	0.956	0.859	0.909	0.802	0.33	0.297	0.35	0.338	0.508	0.537	0.526	0.464	0.602	0.57	0.577	0.527	0.287	0.325	0.471	0.911
Calu-6	–	–	–	–	–	–	–	–	0.876	0.897	0.872	0.782	–	–	–	–	–	0.786	–	–
SW 900	0.569	0.609	0.3	0.463	0.493	0.543	0.531	0.407	–	–	–	–	0.854	0.861	0.667	0.734	0.397	–	0.856	0.416
NCI-H650	1.48	1.04	0.378	1.08	0.327	0.314	0.312	0.296	–	–	–	–	1.08	0.928	1.09	0.848	0.309	–	0.888	0.79

Cell Line	relative viability ([1]; first compound 0.04 µM)	relative viability ([1]; first compound 0.1265 µM)	relative viability ([1]; first compound 1.265 µM)	relative viability ([1]; first compound 4 µM)	relative viability ([2]; first compound 0.04 µM)	relative viability ([2]; first compound 0.1265 µM)	relative viability ([2]; first compound 1.265 µM)	relative viability ([2]; first compound 4 µM)	relative viability ([3]; first compound 0.006325 µM)	relative viability ([3]; first compound 0.02 µM)	relative viability ([3]; first compound 0.06325 µM)	relative viability ([3]; first compound 0.2 µM)	relative viability ([4]; first compound 0.04 µM)	relative viability ([4]; first compound 0.1265 µM)	relative viability ([4]; first compound 1.265 µM)	relative viability ([4]; first compound 4 µM)	relative viability ([2]; first compound 0.4 µM)	relative viability ([3]; first compound 0.002 µM)	relative viability ([4]; first compound 0.4 µM)	relative viability ([1]; first compound 0.4 µM)
NCI-H460	0.639	0.611	0.2	0.682	0.145	0.286	0.121	0.103	1.1	1.33	0.388	0.0669	0.218	0.194	0.131	0.113	0.175	0.945	0.139	0.615
NCI-H2228	–	–	–	–	0.633	0.846	0.958	0.743	0.87	0.964	0.696	0.368	0.49	0.684	0.583	0.381	0.737	0.739	0.429	–
NCI-H2085	0.951	0.979	0.436	0.471	0.466	0.445	0.422	0.464	1.18	1.07	1.12	1.15	0.569	0.299	0.369	0.327	0.483	1.05	0.382	0.887
HCC-366	0.248	0.317	0.106	0.249	0.35	0.384	0.393	0.353	0.95	0.974	1.02	0.963	0.362	0.464	0.354	0.233	0.39	1.07	0.274	0.242
LCLC-103H	0.757	0.809	0.786	0.652	0.515	0.421	0.472	0.451	–	–	–	–	0.659	0.607	0.63	0.64	0.472	–	0.664	0.724
NCI-H1650	–	–	–	–	0.361	0.338	0.324	0.291	1.11	1.37	1.15	0.632	0.524	0.46	0.51	0.575	0.297	1.08	0.618	–
NCI-H2342	0.626	0.498	0.484	0.46	0.485	0.495	0.519	0.473	–	–	–	–	0.804	0.851	0.753	0.658	0.484	–	0.779	0.49
NCI-H522	0.857	0.909	0.745	0.851	0.958	0.793	0.947	0.796	–	–	–	–	0.76	0.646	0.727	0.731	0.903	–	0.668	0.849
EBC-1	–	–	–	–	–	–	–	–	0.42	0.474	0.397	0.507	–	–	–	–	–	0.396	–	–
IA-LM	–	–	–	–	–	–	–	–	0.798	0.856	0.711	0.483	–	–	–	–	–	0.773	–	–
COR-L 105	–	–	–	–	0.431	0.42	0.424	0.433	0.686	0.878	0.69	0.707	0.518	0.41	0.456	0.461	0.353	0.674	0.41	–
NCI-H1703	–	0.124	0.0966	0.126	–	–	–	–	0.967	1.86	1.24	1.09	–	–	–	–	–	1.04	–	–
NCI-H2023	–	–	–	–	0.368	0.492	0.295	0.295	1.02	0.991	0.942	0.459	0.487	0.533	0.537	0.37	0.295	0.972	0.49	–
NCI-H358	0.571	0.462	0.295	0.409	0.178	0.138	0.153	0.153	–	–	–	–	0.191	0.146	0.129	0.148	0.137	–	0.149	0.377
A549	–	–	–	–	–	–	–	–	1.13	1.25	1.22	1.12	–	–	–	–	–	1.11	–	–
NCI-H596	1.02	1.11	0.853	0.912	–	–	–	–	0.811	0.828	0.898	0.419	0.756	0.82	0.878	0.592	–	0.98	0.782	1.24
SK-LU-1	–	–	–	–	0.424	0.408	0.375	0.348	0.813	0.791	0.901	0.817	0.422	0.467	0.492	0.414	0.504	0.881	0.394	–
COR-L23	–	–	–	–	0.314	0.299	0.315	0.281	0.964	1.04	0.323	0.194	0.603	0.639	0.62	0.578	0.239	0.991	0.538	–
ABC-1	0.904	0.738	0.729	0.864	0.546	0.6	0.686	0.709	–	–	–	–	–	–	–	–	0.664	–	–	0.783
NCI-H2009	–	–	–	–	0.259	0.224	0.202	0.13	1.11	1.18	1.12	1.04	0.297	0.232	0.228	0.179	0.176	1.15	0.201	–
